Experimental data published in PubChem BioAssay (NCI).
Values joined by “and” are separate entries in the source; they are usually repeats but may differ in a detail not shown here. Equal values may be shown once.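 48-hour exposure; five concentrations; linearly interpolated endpoints. GI50 is the concentration that inhibits growth by half. TGI denotes the concentration required for complete inhibition of growth.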

Tests used:
Assay in all cases: inhibition of tumour cell growth, NCI panel, 48 h
XF 498 CNS = system: XF 498 CNS
HOP-18 NSCLC = system: HOP-18 NSCLC
DMS 273 small cell lung = system: DMS 273 small cell lung
KM20L2 colon = system: KM20L2 colon
DMS 114 small cell lung = system: DMS 114 small cell lung
DLD-1 colon = system: DLD-1 colon
M19-MEL melanoma = system: M19-MEL melanoma
RXF-631 renal = system: RXF-631 renal
MDA-N = system: MDA-N
SN12K1 renal = system: SN12K1 renal

SMILES	TGI (XF 498 CNS)	TGI (HOP-18 NSCLC)	TGI (DMS 273 small cell lung)	TGI (KM20L2 colon)	TGI (DMS 114 small cell lung)	TGI (DLD-1 colon)	TGI (M19-MEL melanoma)	TGI (RXF-631 renal)	TGI (MDA-N)	further results
CN=C(N)NC	> 100 µM	> 100 µM	> 100 µM	> 100 µM	> 100 µM	> 100 µM	> 100 µM			
CC1(C)Oc2ccccc2[N+]([O-])=C1c1ccccc1			> 100 µM	> 100 µM	> 100 µM	> 100 µM	> 100 µM	> 100 µM		
CCOc1ccc(N=Cc2ccc3ccccc3n2)cc1	> 100 µM	> 100 µM	> 100 µM	> 100 µM		> 100 µM	> 100 µM	> 100 µM		
S=C1SCN(C2CCCCCCCCCCC2)CN1C1CCCCCCCCCCC1									> 100 µM	
CC1(C)OC2COC(c3[nH]nc4c(=O)[nH]c(=O)[nH]c34)C2O1 (configuration not stated)									> 100 µM	
COC(=O)C1=C(O)c2cc3c(cc2[C@H](c2cc(OC)c(OC)c(OC)c2)C1)OCO3	> 100 µM	> 100 µM	> 100 µM	> 100 µM	> 100 µM	> 100 µM	10.1 µM	> 100 µM		
O=C(COC(=O)c1cccc2c(=O)c3ccccc3[nH]c12)Nc1ccc(S(=O)(=O)Nc2ncccn2)cc1	> 100 µM		> 100 µM	> 100 µM	> 100 µM	> 100 µM	> 100 µM	> 100 µM		
CN[C@H]1CC[C@]23C[C@]24CC[C@]2(C)[C@@H]([C@H](C)N(C)C)CC[C@@]2(C)[C@@H]4CC[C@H]3C1(C)C									29.2 µM	
NC(N)=NC(N)=Nc1ccc(S(N)(=O)=O)cc1									> 100 µM	
N/C(=N\N=C\c1ccc(O)c(O)c1)NO	> 100 µM	> 100 µM	> 100 µM	> 100 µM	> 100 µM	> 100 µM	> 100 µM	> 100 µM		
COc1ccc2c(c1OC)C(C=C(c1ccccc1)c1ccccc1)CN(C)C2 (configuration not stated)		67.7 µM	34.9 µM	35.5 µM	29.3 µM	76.8 µM	81 µM	66.4 µM		
CC1=CC2=C(C#N)C(=O)OC2(C)C(c2ccccc2)C1 (configuration not stated)									> 100 µM	
COc1cc2ccc3c4cc(OC)c(OC(C)C)cc4c[n+](C)c3c2cc1OC		88.6 µM		> 100 µM	41.4 µM	> 100 µM	> 100 µM			
CCC(=O)Nc1ncnc2ncn(C(=O)CC)c12									> 100 µM	
O=C(O)CNC(=O)C1NC(C(F)(F)F)(C(F)(F)F)OC1(C(F)(F)F)C(F)(F)F (configuration not stated)									> 100 µM	
COc1ccc(C[C@H]2NC[C@H](O)[C@H]2OC(C)=O)cc1									0.195 µM	
Cn1cc2ccccc2c1-c1nc(F)nc(Nc2ccc(N)cc2)n1	30 µM		25.6 µM	47.4 µM	38.1 µM	34.9 µM	25.2 µM	38.2 µM		
CC(C)=CCC/C(C)=C/CC/C(C)=C/C1CCC(=O)C1(C)C (configuration not stated)	32.3 µM	63.1 µM		31.9 µM	28.2 µM	32.6 µM	38 µM	> 100 µM		
[N-]=[N+]=NC1C2CC3CC(C2)CC1C3 (configuration not stated)		> 100 µM	> 100 µM	> 100 µM	> 100 µM		> 100 µM	> 100 µM		
CC(C)Cc1ccc(C(C)/C=C2\CCC(CN3CCCCC3)C2=O)cc1 (configuration not stated)	16 µM	30.6 µM	7.2 µM	29.1 µM	4.78 µM	5.13 µM	6.08 µM		12.8 µM	
CCCCCCC/C=C1\CCC(CN(C)C)C1=O (configuration not stated)	35.4 µM	31.4 µM		34.6 µM		20.9 µM		> 71.4 µM	26.8 µM	
C[C@H](C(O)CC(=O)C(C)(C)O)[C@H]1CC[C@@]2(C)[C@@H]3CC[C@H]4C(C)(C)[C@@H](OC5OC(COC6OC(CO)C(O)C(O)C6O)C(O)C(O)C5O)CC[C@]4(C)C3=CC[C@]12C (some centres not stated)									> 100 µM	
COC(=O)c1ccc(/C=C/S(=O)(=O)c2ccccc2)cc1	> 100 µM		> 100 µM	> 100 µM	> 100 µM	> 100 µM	> 100 µM	> 100 µM		
CCN(CC)/[N+]([O-])=N/OCC(C)O (configuration not stated)	> 100 µM		> 100 µM		> 100 µM		> 100 µM	> 100 µM		

SMILES	TGI (XF 498 CNS)	TGI (HOP-18 NSCLC)	TGI (DMS 273 small cell lung)	TGI (KM20L2 colon)	TGI (DMS 114 small cell lung)	TGI (DLD-1 colon)	TGI (M19-MEL melanoma)	TGI (RXF-631 renal)	TGI (MDA-N)	further results
CNC(=S)N(C1CCCCC1)C1CCCCC1									> 100 µM	
CCCCCCC(O)C(O)CCC(O)C1CCC(CCCCC(O)CC2=CC(C)OC2=O)O1 (configuration not stated)									29.1 µM	GI50 (MDA-N): 12.3 µM
CCC1(N)C(=O)OCc2c1cc1n(c2=O)Cc2cc3ccccc3nc2-1 (configuration not stated)									> 100 µM	GI50 (MDA-N): 21.8 µM
CC(=O)Oc1cc(Cl)c(OC(C)=O)c2c(OC(C)=O)c(C)c(O[Si](C)(C)C(C)(C)C)cc12	32.8 µM		20 µM	32.1 µM	15.1 µM	3.92 µM				
Cc1ccc(-c2cc(=O)c3cc(C)c(C)c(C(=O)O)c3o2)cc1[N+](=O)[O-]		> 100 µM	> 100 µM	> 100 µM	> 100 µM	> 100 µM	> 100 µM			
N#CC(C(=O)O)C(c1c(Cl)cccc1Cl)C(C#N)C(=O)O (configuration not stated)									> 100 µM	
C/C(=N\NS(=O)(=O)c1c(C)cc(C)cc1C)c1ccc[n+]([O-])n1		47.3 µM	34.8 µM	54.6 µM	36.8 µM	21 µM	29 µM	93 µM		
COc1cc(/C=C2\Cc3ccccc3C2=O)cc(OC)c1OC	> 100 µM	> 100 µM	> 100 µM	> 100 µM	> 100 µM	> 100 µM	> 100 µM	> 100 µM		
O=C(CC1SC(=Nc2ccccc2Cl)NC1=O)Nc1ccc(Cl)cc1 (configuration not stated)			> 100 µM	> 100 µM	> 100 µM	> 100 µM	> 100 µM			
C/C=C(\C)C(=O)N1c2ccccc2CC1c1c(C)[nH]c2ccccc12 (configuration not stated)			> 100 µM	> 100 µM		> 100 µM	> 100 µM	> 100 µM		
CSC1SCC2C(=O)N(C)C(C(C)C)C(=O)OCC(NC(=O)c3cnc4ccccc4n3)C(=O)NC(C)C(=O)N(C)C1C(=O)N(C)C(C(C)C)C(=O)OCC(NC(=O)c1cnc3ccccc3n1)C(=O)NC(C)C(=O)N2C (configuration not stated)	5.67e-05 µM				8.38e-06 µM	1.08 µM and 5.93 µM				GI50 (XF 498 CNS): 3.06e-05 µM; GI50 (HOP-18 NSCLC): 9.66e-06 µM; GI50 (DMS 273 small cell lung): 4e-05 µM; GI50 (KM20L2 colon): 5.29e-06 µM; GI50 (DMS 114 small cell lung): 3.45e-06 µM; GI50 (DLD-1 colon): 1.84e-05 µM; GI50 (SN12K1 renal): 0.000567 µM; TGI (SN12K1 renal): 0.0248 µM and 0.0801 µM
CN(C)C1C(=O)C(C(N)=O)=C(O)C2(O)C(=O)C3=C(O)c4c(O)cccc4C(C)(O)C3CC12 (configuration not stated)									38.9 µM and > 100 µM	GI50 (MDA-N): 17.8 µM and > 100 µM
CCC(C)(C)NS(=O)(=O)c1ccccc1	> 100 µM		> 100 µM	> 100 µM	> 100 µM	> 100 µM	> 100 µM			
CCOC(=O)C(=O)C(/C(=N/N(C)C)C(=O)Nc1ccc(C)cc1C)c1nc2ccccc2[nH]c1=O (configuration not stated)									> 100 µM	
CC(=O)OC1(C#N)CC2OC1C1N=NN(C(=O)OC(C)(C)C)C21 (configuration not stated)	> 100 µM	> 100 µM	> 100 µM	> 100 µM	> 74.9 µM	> 31.6 µM	> 100 µM			
N.N.NCCCCCN.O=C([O-])CC(=O)[O-].O=C([O-])CC(=O)[O-].[Pt+4].[Pt+4]		> 100 µM		> 100 µM		> 100 µM				GI50 (HOP-18 NSCLC): > 100 µM; GI50 (KM20L2 colon): > 100 µM; GI50 (DLD-1 colon): > 100 µM
COc1c(Cl)[c]([Hg][O]C(C)=O)c(NCC(C)=O)c(OC)[c]1[Hg][O]C(C)=O				> 100 µM	26.9 µM	26.8 µM	30.1 µM	3.88 µM		GI50 (KM20L2 colon): 28.3 µM; GI50 (DMS 114 small cell lung): 4.12 µM; GI50 (RXF-631 renal): 1.22 µM; GI50 (DLD-1 colon): 12.2 µM; GI50 (M19-MEL melanoma): 14.8 µM
OCCCCCNc1ccnc2cc(Cl)ccc12	> 100 µM	> 100 µM	> 100 µM	> 100 µM	> 100 µM	> 100 µM	> 100 µM			
CCOC(=O)NC(=O)c1cn(C2OC(COC(=O)CCCCCCCCC(=O)OCC3OC(n4cc(C(=O)NC(=O)OCC)c(=O)[nH]c4=O)C4OC(C)(C)OC34)C3OC(C)(C)OC32)c(=O)[nH]c1=O (configuration not stated)	> 100 µM	> 100 µM	> 100 µM	> 100 µM	> 100 µM	> 100 µM	86.2 µM	> 100 µM		
COc1cc(=O)oc(/C=C/C=C/C=C/C(C)=C\C2(C)OC(C)C(C)(O)C2O)c1C (configuration not stated)									> 100 µM	
COc1cc(OC)cc(C(=O)Cc2c(C(=O)c3ccccc3)c3ccccc3n2C(=O)c2ccccc2)c1	73.6 µM		> 100 µM	> 100 µM	> 100 µM	> 100 µM	> 100 µM			
CC(CCC(=O)O)c1ccc(Br)cc1 (configuration not stated)		> 100 µM	> 100 µM	> 100 µM	> 100 µM	> 100 µM	> 100 µM			
CC(C)c1cc(C(=O)[O-])c(O)c(C(C)C)c1.CC(C)c1cc(C(=O)[O-])c(O)c(C(C)C)c1.CC(C)c1cc(C(=O)[O-])c(O)c(C(C)C)c1.CC(C)c1cc(C(=O)[O-])c(O)c(C(C)C)c1.CC(C)c1cc(C(=O)[O-])c(O)c(C(C)C)c1.CC(C)c1cc(C(=O)[O-])c(O)c(C(C)C)c1.[Cu+2].[Mn+2].[Mn+2]	71.5 µM	29.1 µM	> 100 µM	> 100 µM	34.6 µM	35.9 µM	18.7 µM			GI50 (XF 498 CNS): 30.2 µM; GI50 (HOP-18 NSCLC): 13.3 µM; GI50 (DMS 273 small cell lung): 22.4 µM; GI50 (KM20L2 colon): 26.1 µM; GI50 (DMS 114 small cell lung): 17.8 µM; GI50 (DLD-1 colon): 17.8 µM; GI50 (M19-MEL melanoma): 5.67 µM
